Source: ChEMBL document CHEMBL3137667, “[Drug-induced liver injury; fourteenth updated edition of the bibliographic database of liver injuries and related drugs]” (Gastroenterol Clin Biol, 2004)

Key:
[1] = human
[2] = human; remark: listed apart in the source
[3] = Highest frequency of moderate liver toxicity observed during clinical trials, expressed as a percentage. [column '% BIOL' in source]; settings: human
[4] = human, serum
[5] = human; remark: listed apart in the source
[6] = human; remark: listed apart in the source
[7] = Highest frequency of acute liver toxicity observed during clinical trials, expressed as a percentage. [column '% AIGUE' in source]; settings: human
[8] = Times to onset, minimal and maximal, observed in the indexed observations. [column 'DELAI' in source]; settings: human
[9] = human; remark: listed apart in the source
[10] = human; remark: listed apart in the source
[11] = human; remark: listed apart in the source
[12] = human; remark: listed apart in the source
[13] = human; remark: listed apart in the source
[14] = human, serum; remark: listed apart in the source
[15] = human, serum, 4383 h
[16] = Proposed mechanism(s) of liver damage. [column 'MEC' in source]; settings: human
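Throughout, for Hepatotoxicity (association with vascular disease): count of indexed literature references reporting vascular liver injury in humans, e.g. peliosis hepatitis, hepatic veno-occlusive disease or Budd-Chiari syndrome.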
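Throughout, for Hepatotoxicity (benign tumour): value is a count of indexed literature references citing a benign tumour confirmed by histopathology.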
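Throughout, for Hepatotoxicity (choleostasis): human cholestatic liver injury, shown by histopathology or by peak ALT or AST elevation over alkaline phosphatase ratio below 2, value counts indexed literature reports.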
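Throughout, for Hepatotoxicity (chronic liver disease): chronic liver injury confirmed by histopathology or persistently raised serum aminotransferase activity beyond 6 months, value given as the count of indexed literature references.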
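Throughout, for Hepatotoxicity (cirrhosis): value is a count of indexed literature references reporting cirrhosis confirmed by histopathology.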
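Throughout, for Hepatotoxicity (cytolytic): human cytolytic liver injury, shown by histopathology or by a ratio above 5 of peak ALT or AST elevation to alkaline phosphatase elevation, value counts indexed references.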
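Throughout, for Hepatotoxicity (granulomatous hepatitis): value is a count of indexed literature references reporting granulomatous liver disease confirmed by histopathology.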
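Throughout, for Hepatotoxicity (malignant tumour): malignant tumour confirmed by histopathology, value gives the count of indexed literature references reporting it.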
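Throughout, for Hepatotoxicity (severe hepatitis): human clinical data: severe hepatitis, meaning potentially life-threatening liver failure or clinically observed cases, the value counts how many indexed literature references report it.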
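Throughout, for Hepatotoxicity (steatosis): steatosis confirmed by histopathology, value is the count of indexed references.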

Row | Compound | Hepatotoxicity (steatosis) [1] | Hepatotoxicity (cytolytic) [2] | Hepatotoxicity (moderate) [3] | Hepatotoxicity (acute) [4] | Hepatotoxicity (benign tumour) [5] | Hepatotoxicity (cirrhosis) [6] | Hepatotoxicity (acute) [7] | Hepatotoxicity (time to onset) [8] | Hepatotoxicity (association with vascular disease) [9] | Hepatotoxicity (choleostasis) [10] | Hepatotoxicity (severe hepatitis) [11] | Hepatotoxicity (malignant tumour) [12] | Hepatotoxicity (granulomatous hepatitis) [13] | Hepatotoxicity (moderate) [14] | Hepatotoxicity (chronic liver disease) [15] | Hepatotoxicity (mechanism) [16] | other results
1 | COc1cnc(NS(=O)(=O)c2ccc(N)cc2)nc1 | 0 | 0 | 0% | 2 | 0 | 0 | 0% | 10 days | 0 | 1 | 0 | 0 | 0 | 0 | 0 | Allergic | –
2 | CC(O)CCC(=O)c1ccoc1 (centres undefined) | 0 | 0 | 0% | 1 | 0 | 0 | 11.3% | 2 days - 8 days | 0 | 0 | 1 | 0 | 0 | 0 | 0 | Dose-dependant | –
3 | CCCc1nn(C)c2c(=O)[nH]c(-c3cc(S(=O)(=O)N4CCN(C)CC4)ccc3OCC)nc12 | 0 | 2 | 0% | 2 | 0 | 0 | 0% | 2 days - 4 months | 0 | 0 | 0 | 0 | 0 | 0 | 0 | Dose-dependant | –
4 | O=C(O)c1ccccc1O.O=C(O)c1ccccc1O.O=C(O)c1ccccc1O | 0 | – | – | 1 | 0 | 0 | – | 3 days | 0 | – | – | 0 | – | 0 | 0 | – | Hepatotoxicity (cytolytic) ([2]; Liver): 1; Hepatotoxicity (moderate) ([3]; Liver): 0%; Hepatotoxicity (acute) ([7]; Liver): 0%; Hepatotoxicity (choleostasis) ([10]; Liver): 0; Hepatotoxicity (severe hepatitis) ([11]; Liver): 1; Hepatotoxicity (granulomatous hepatitis) ([13]; Liver): 0; Hepatotoxicity (mechanism) ([16]; Liver): Allergic
5 | CNC=O | 0 | 1 | 75% | 4 | 0 | 0 | 0% | 3 days - 1 week | 0 | 0 | 2 | 0 | 0 | 13 | 0 | Dose-dependant | –
6 | CC(=O)Nc1cc([As](=O)(O)O)ccc1O [ACETARSONE] | 0 | 0 | 0% | 2 | 0 | 0 | 0% | 2 cures - 3 cures | 0 | 0 | 0 | 0 | 0 | 0 | 0 | Allergic | –
7 | CC(C)(O)c1ccccc1CC[C@@H](SCC1(CC(=O)O)CC1)c1cccc(/C=C/c2ccc3ccc(Cl)cc3n2)c1 [MONTELUKAST] | 0 | 2 | 13.9% | – | 0 | 0 | – | 3 days - 2 years | 0 | 2 | 0 | 0 | 0 | 3 | 0 | Allergic | –
8 | COc1c(N2C[C@@H]3CCCN[C@@H]3C2)c(F)cc2c(=O)c(C(=O)O)cn(C3CC3)c12 [MOXIFLOXACIN] | 0 | 0 | – | – | 0 | 0 | – | 26 days | 0 | 1 | – | 0 | 0 | 3 | 0 | Dose-dependant | Hepatotoxicity (moderate) ([3]; Liver): 6.9%; Hepatotoxicity (severe hepatitis) ([11]; Liver): 0
9 | CCn1cc(C(=O)O)c(=O)c2ccc(C)nc21 [NALIDIXIC ACID] | 0 | 1 | 0% | – | 0 | 0 | 0% | 2 weeks | 0 | 2 | 0 | 0 | 0 | 2 | 0 | Allergic | –
10 | CN1c2ccccc2C(NCCCCCCC(=O)O)c2ccc(Cl)cc2S1(=O)=O (centres undefined) [TIANEPTINE] | 1 | 3 | 0% | 4 | 0 | 0 | 0% | 1 week - 6 months | – | 2 | 0 | 0 | 0 | 0 | 0 | Reactive metabolite | –
11 | CN1[C@@H]2CC[C@H]1C[C@@H](OC(=O)c1c[nH]c3ccccc13)C2 [TROPISETRON] | 0 | 1 | 40.9% | 1 | 0 | 0 | 4.5% | – | 0 | 0 | 0 | 0 | 0 | 3 | 0 | Dose-dependant | –
12 | INTERFERON ALFA-N1 | 0 | 0 | 42% | 0 | 0 | 0 | 0% | – | 0 | 0 | 0 | 0 | 0 | 15 | 0 | Dose-dependant | –
13 | INTERLEUKIN 6 | 0 | 0 | 55% | 2 | 0 | 0 | 0% | – | 0 | 1 | 0 | 0 | 0 | 9 | 0 | Dose-dependant | –
14 | PEGASPARGASE | 0 | 0 | 0% | 2 | 0 | 0 | 7.7% | – | 0 | 0 | 0 | 0 | 0 | 0 | 0 | Dose-dependant | –
15 | PEGLOTICASE | 0 | 0 | 3.7% | 0 | 0 | 0 | 0% | – | 0 | 0 | 0 | 0 | 0 | 1 | 0 | Dose-dependant | –
